Results published in patent publication US10927123B2, “Modulators of the beta-3 adrenergic receptor useful for the treatment or prevention of disorders related thereto” (Arena Pharmaceuticals, Inc., priority 2016, dated 2021).

target: Beta-3 Adrenergic Receptor (Homo sapiens (Human), UniProt P13945); assay: HTRF cAMP antagonist assay (IC50 determination); assay type: cell-based; settings: CHO-K1 cells stably expressing recombinant receptor; antagonism of isoproterenol at EC90; cAMP readout
Procedure: HTRF cAMP assays were performed according to manufacturer's instructions (Cisbio, cAMP Dynamic 2 Assay Kit; #62AM4PEJ). CHO-K1 cells stably expressing recombinant receptor were harvested and suspended in warm PBS to make a 300,000 cells/mL stock. This cell suspension was dispensed into 384 well assay plates (PerkinElmer ProxiPlate #6008280) at 5 μL per well (1500 cells/well) along with a cAMP standard curve.
Compounds were dissolved and serially diluted (5-fold) in DMSO to generate a 10-point dose response stock. The stock was then diluted 100-fold in assay buffer (PBS containing 1 mM IBMX) before a volume of 2.5 μL was added to the cells (the final, top concentration of compound in the dose-response is typically 10 or 100 μM). After a brief incubation, 2.5 μL of isoproterenol stock, prepared at a concentration 4 times its EC90 at the receptor of interest, was added to the wells. The EC90 for isoproterenol, a beta-adrenergic agonist, was determined in separate experiments using standard methods to measure agonist potencies.
Following a 1-hour incubation at room temperature, 5 μL of cAMP-D2 Reagent diluted in Lysis Buffer was added to each well followed by 5 μL of Cryptate Reagent. Plates were further incubated at room temperature for 1 hour prior to reading. Time resolved fluorescence measurements were collected on a suitable, HTRF-capable plate reader.
Counts from the plate reader were fit to the cAMP standard curve on the assay plate in order to determine cAMP concentrations in each well, and these values were used to construct dose-response curves to obtain IC50 values.

Beta-3 Adrenergic Receptor, sequence (P13945 whole entry, species assumed): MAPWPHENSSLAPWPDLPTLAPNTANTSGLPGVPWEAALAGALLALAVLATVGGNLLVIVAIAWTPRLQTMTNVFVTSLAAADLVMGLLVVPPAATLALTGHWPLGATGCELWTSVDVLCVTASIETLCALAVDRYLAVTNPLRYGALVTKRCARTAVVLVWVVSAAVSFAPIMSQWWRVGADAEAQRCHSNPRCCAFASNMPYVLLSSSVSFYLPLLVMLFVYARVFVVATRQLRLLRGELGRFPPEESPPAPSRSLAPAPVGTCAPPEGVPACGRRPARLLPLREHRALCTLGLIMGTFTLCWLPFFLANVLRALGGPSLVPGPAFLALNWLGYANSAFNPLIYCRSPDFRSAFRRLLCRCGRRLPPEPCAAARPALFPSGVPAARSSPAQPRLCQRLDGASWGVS

Structure (SMILES) | IC50
O=S(=O)(CC1CCC1)c1cccc(OC[C@@H](O)CNC2COC3(CCN(S(=O)(=O)c4ccc5ccccc5c4)CC3)C2)c1 (stereo partly drawn) [Compound 13, (2S)-1-(3-(cyclobutylmethylsulfonyl)phenoxy)-3-(8-(naphthalen-2-ylsulfonyl)-1-oxa-8-azaspiro[4.5]decan-3-ylamino)propan-2-ol] | 97.8 nM
O=S(=O)(CCCC(F)(F)F)c1cccc(OC[C@@H](O)CNC2COC3(CCN(S(=O)(=O)c4ccc5ccccc5c4)CC3)C2)c1 (stereo partly drawn) [Compound 14, (2S)-1-(8-(naphthalen-2-ylsulfonyl)-1-oxa-8-azaspiro[4.5]decan-3-ylamino)-3-(3-(4,4,4-trifluorobutylsulfonyl)phenoxy)propan-2-ol] | 56.7 nM
O=S(=O)(CC1CCCCC1)c1cccc(OC[C@@H](O)CNC2COC3(CCN(S(=O)(=O)c4ccc5ccccc5c4)CC3)C2)c1 (stereo partly drawn) [Compound 16, (2S)-1-(3-(cyclohexylmethylsulfonyl)phenoxy)-3-(8-(naphthalen-2-ylsulfonyl)-1-oxa-8-azaspiro[4.5]decan-3-ylamino)propan-2-ol] | 133 nM
O=S(=O)(CC1CC1(F)F)c1cccc(OC[C@@H](O)CNC2COC3(CCN(S(=O)(=O)c4ccc5ccccc5c4)CC3)C2)c1 (stereo partly drawn) [Compound 17, (2S)-1-(3-((2,2-difluorocyclopropyl)methylsulfonyl)phenoxy)-3-(8-(naphthalen-2-ylsulfonyl)-1-oxa-8-azaspiro[4.5]decan-3-ylamino)propan-2-ol] | 38.8 nM
O=S(=O)(Cc1ccccc1)c1cccc(OC[C@@H](O)CNC2COC3(CCN(S(=O)(=O)c4ccc5ccccc5c4)CC3)C2)c1 (stereo partly drawn) [Compound 20, (2S)-1-(3-(benzylsulfonyl)phenoxy)-3-(8-(naphthalen-2-ylsulfonyl)-1-oxa-8-azaspiro[4.5]decan-3-ylamino)propan-2-ol] | 76.2 nM
NCCS(=O)(=O)c1cccc(OC[C@@H](O)CNC2COC3(CCN(S(=O)(=O)c4ccc5ccccc5c4)CC3)C2)c1 (stereo partly drawn) [Compound 22, (2S)-1-(3-(2-aminoethylsulfonyl)phenoxy)-3-(8-(naphthalen-2-ylsulfonyl)-1-oxa-8-azaspiro[4.5]decan-3-ylamino)propan-2-ol] | 302 nM
CCC(C)S(=O)(=O)c1cccc(OC[C@@H](O)CNC2COC3(CCN(S(=O)(=O)c4ccc5ccccc5c4)CC3)C2)c1 (stereo partly drawn) [Compound 25, (2S)-1-(3-(sec-butylsulfonyl)phenoxy)-3-(8-(naphthalen-2-ylsulfonyl)-1-oxa-8-azaspiro[4.5]decan-3-ylamino)propan-2-ol] | 54.6 nM
CS(=O)(=O)c1cccc(OC[C@@H](O)CNC2COC3(CCN(S(=O)(=O)c4ccc5c(c4)CCCO5)CC3)C2)c1 (stereo partly drawn) [Compound 28, (2S)-1-(8-(chroman-6-ylsulfonyl)-1-oxa-8-azaspiro[4.5]decan-3-ylamino)-3-(3-(methylsulfonyl)phenoxy)propan-2-ol] | 18.5 nM
CS(=O)(=O)c1cccc(OC[C@@H](O)CNC2COC3(CCN(S(=O)(=O)c4ccc5c(c4)CCCC5)CC3)C2)c1 (stereo partly drawn) [Compound 29, (2S)-1-(3-(methylsulfonyl)phenoxy)-3-(8-(5,6,7,8-tetrahydronaphthalen-2-ylsulfonyl)-1-oxa-8-azaspiro[4.5]decan-3-ylamino)propan-2-ol] | 16.1 nM
CS(=O)(=O)c1cccc(OC[C@@H](O)CNC2COC3(CCN(S(=O)(=O)c4ccc(Cl)c5nonc45)CC3)C2)c1 (stereo partly drawn) [Compound 30, (2S)-1-(8-(7-chlorobenzo[c][1,2,5]oxadiazol-4-ylsulfonyl)-1-oxa-8-azaspiro[4.5]decan-3-ylamino)-3-(3-(methylsulfonyl)phenoxy)propan-2-ol] | 34.3 nM
CS(=O)(=O)c1cccc(OC[C@@H](O)CNC2COC3(CCN(S(=O)(=O)c4cccc(Cl)c4)CC3)C2)c1 (stereo partly drawn) [Compound 31, (2S)-1-(8-(3-chlorophenylsulfonyl)-1-oxa-8-azaspiro[4.5]decan-3-ylamino)-3-(3-(methylsulfonyl)phenoxy)propan-2-ol] | 49.3 nM
CN1CCOc2ccc(S(=O)(=O)N3CCC4(CC3)CC(NC[C@H](O)COc3cccc(S(C)(=O)=O)c3)CO4)cc21 (stereo partly drawn) [Compound 32, (2S)-1-(8-(4-methyl-3,4-dihydro-2H-benzo[b][1,4]oxazin-6-ylsulfonyl)-1-oxa-8-azaspiro[4.5]decan-3-ylamino)-3-(3-(methylsulfonyl)phenoxy)propan-2-ol] | 21.1 nM

The remaining lines, values ahead:

IC50 | Structure (SMILES)
5.7 nM | CCS(=O)(=O)c1cccc(OC[C@@H](O)CNC2COC3(CCN(S(=O)(=O)c4ccc5ccccc5c4)CC3)C2)c1 (stereo partly drawn) [Compound 15, (2S)-1-(3-(ethylsulfonyl)phenoxy)-3-(8-(naphthalen-2-ylsulfonyl)-1-oxa-8-azaspiro[4.5]decan-3-ylamino)propan-2-ol]
48.9 nM | O=S(=O)(c1cccc(OC[C@@H](O)CNC2COC3(CCN(S(=O)(=O)c4ccc5ccccc5c4)CC3)C2)c1)C1CCC1 (stereo partly drawn) [Compound 18, (2S)-1-(3-(cyclobutylsulfonyl)phenoxy)-3-(8-(naphthalen-2-ylsulfonyl)-1-oxa-8-azaspiro[4.5]decan-3-ylamino)propan-2-ol]
66.7 nM | O=S(=O)(c1cccc(OC[C@@H](O)CNC2COC3(CCN(S(=O)(=O)c4ccc5ccccc5c4)CC3)C2)c1)C1CCCC1 (stereo partly drawn) [Compound 19, (2S)-1-(3-(cyclopentylsulfonyl)phenoxy)-3-(8-(naphthalen-2-ylsulfonyl)-1-oxa-8-azaspiro[4.5]decan-3-ylamino)propan-2-ol]
252 nM | O=S(=O)(c1cccc(OC[C@@H](O)CNC2COC3(CCN(S(=O)(=O)c4ccc5ccccc5c4)CC3)C2)c1)C1CNC1 (stereo partly drawn) [Compound 21, (2S)-1-(3-(azetidin-3-ylsulfonyl)phenoxy)-3-(8-(naphthalen-2-ylsulfonyl)-1-oxa-8-azaspiro[4.5]decan-3-ylamino)propan-2-ol]
242 nM | CS(=O)(=O)c1cccc(OC[C@H](O)CN[C@H]2COC3(CCN(S(=O)(=O)c4ccc5ccccc5c4)CC3)C2)c1 [Compound 23, (R)-1-(3-(methylsulfonyl)phenoxy)-3-((R)-8-(naphthalen-2-ylsulfonyl)-1-oxa-8-azaspiro[4.5]decan-3-ylamino)propan-2-ol]
23.6 nM | O=S(=O)(c1cccc(OC[C@@H](O)CNC2COC3(CCN(S(=O)(=O)c4ccc5ccccc5c4)CC3)C2)c1)C1COC1 (stereo partly drawn) [Compound 24, (2S)-1-(8-(naphthalen-2-ylsulfonyl)-1-oxa-8-azaspiro[4.5]decan-3-ylamino)-3-(3-(oxetan-3-ylsulfonyl)phenoxy)propan-2-ol]
5.25 nM | CCS(=O)(=O)c1cccc(OC[C@@H](O)CN[C@H]2COC3(CCN(S(=O)(=O)c4ccc5ccccc5c4)CC3)C2)c1 [Compound 26, (S)-1-(3-(ethylsulfonyl)phenoxy)-3-((R)-8-(naphthalen-2-ylsulfonyl)-1-oxa-8-azaspiro[4.5]decan-3-ylamino)propan-2-ol]
19.3 nM | CCS(=O)(=O)c1cccc(OC[C@@H](O)CN[C@@H]2COC3(CCN(S(=O)(=O)c4ccc5ccccc5c4)CC3)C2)c1 [Compound 27, (S)-1-(3-(ethylsulfonyl)phenoxy)-3-((S)-8-(naphthalen-2-ylsulfonyl)-1-oxa-8-azaspiro[4.5]decan-3-ylamino)propan-2-ol]
189 nM | CS(=O)(=O)c1cccc(OC[C@H](O)CN[C@@H]2COC3(CCN(S(=O)(=O)c4ccc5ccccc5c4)CC3)C2)c1 [Compound 33, (R)-1-(3-(methylsulfonyl)phenoxy)-3-((S)-8-(naphthalen-2-ylsulfonyl)-1-oxa-8-azaspiro[4.5]decan-3-ylamino)propan-2-ol]
